Where “and” joins values, the source holds several entries; their conditions need not be identical. Equal entries are not always repeated.
Tests used:
[1] = pKa measurement of the cationic lipid (TNS fluorescence vs pH); assay type: physicochemical; conditions: probe TNS (fluorescent probe), pKa of the cationic lipid of formula (I)
Experimental: Unless indicated otherwise, all pKa's referred to herein were measured at standard temperature and pressure. Also, unless otherwise indicated, all references to pKa are references to pKa measured using the following technique. 2 mM solution of lipid in ethanol was prepared by weighing the lipid and then dissolving it in ethanol. 0.3 mM solution of fluorescent probe TNS in ethanol:methanol 9:1 was prepared by first making 3 mM solution of TNS in methanol and then diluting to 0.3 mM with ethanol. An aqueous buffer containing 200 mM sodium phosphate dibasic and 100 mM citric acid was prepared. […] Using the Hamilton Microlab Star high throughput liquid handler and Hamilton run control software Software, 7.5 uL of probe/lipid mix were added to 242.5 uL of buffer in a 1 mL 96 well plate (model NUNC 260252, […] Nunc International). This was done with all twelve buffers. After mixing in 1 mL 96 well plate, 100 uL of each probe/lipid/buffer mixture was transferred to a 250 uL black with clear bottom 96 well plate (model COSTAR 3904, Corning). The fluorescence measurements are carried out on the SpectraMax M5 spectrophotometer using software SoftMax pro 5.2 and following parameters: After the measurement, the background fluorescence value of an empty well on the 96 well plate was subtracted from each probe/lipid/buffer mixture. The fluorescence intensity values were then normalized to the value at lowest pH. The normalized fluorescence intensity vs. pH chart was then plotted in the Microsoft Excel software. The twelve points were connected with a smooth line. The point on the line at which the normalized fluorescence intensity was equal to 0.5 was found. […] The pKa determined using this method is precise to about 0.1 pKa units.

[2] = Polydispersity index (PDI) of the lipid nanoparticle (dynamic light scattering); assay type: physicochemical; conditions: Table 4, FVII siRNA LNP
Excerpt: The lipid nanoparticles (LNPs) were formed by mixing equal volumes of lipids dissolved in alcohol with siRNA dissolved in a citrate buffer by an impinging jet process. […] The siRNA to total lipid ratio is approximately 0.05 (wt/wt). Where a LNP formulation contains four lipid components, the molar ratios correspond to the type of lipid as it appears in the first four columns of the table, in the order that they appear. The ratio of the lipids ranges from 20 to 70 mole percent for the cationic lipid with a target of 40-60, the mole percent of helper lipid ranges from 20 to 70 with a target of 30 to 50, the mole percent of neutral lipid ranges from 0-30, the mole percent of PEG lipid has a range from 1 to 6 with a target of 2 to 5. The concentration of siRNA solution ranges from 0.7 to 1.0 mg/mL with a target of 0.8 to 0.9 mg/mL in a sodium citrate: sodium chloride buffer pH 4-6, with a target of 4.5-5.5. The LNPs are formed by mixing equal volumes of lipid solution in ethanol with siRNA dissolved in a citrate buffer by an impinging jet process through a mixing device with ID ranging from 0.25 to 2.0 mm at a flow rate from 10 to 640 mL/min. The mixed LNP solution is held at room temperature for 0-24 hrs prior to a dilution step. […] The final product is sterile filtered and stored at 4° C. Unless indicated otherwise, all PDIs referred to herein are the PDI of the fully formed nanoparticle, as measured by dynamic light scattering on a Malvern Zetasizer. The nanoparticle sample was diluted in phosphate buffered saline (PBS) so that the count rate was approximately 200-400 kcts. The data is presented in Tables 4 and 5 as a weighted average of the intensity measure.

[3] = tested on: respiratory syncytial virus F protein; test: Immunization studies: anti-RSV-F titers after liposome-delivered vA317 self-replicating RNA; assay type: in vivo; conditions: BALB/c mice, liposomes with 0.1 μg vA317 replicon (naked control 1 μg); for anti-RSV-F titer 2wp1 pool 1 / anti-RSV-F titer 2wp1 pool 2: 2 weeks after first dose; for anti-RSV-F titer 2wp2 pool 1 / anti-RSV-F titer 2wp2 pool 2: 2 weeks after second dose; for anti-RSV-F titer 4wp2 pool 1 / anti-RSV-F titer 4wp2 pool 2: 4 weeks after second dose
Experimental: BALB/c were immunized with liposomes comprising DSPC, cholesterol, and various lipids of the invention (or, for comparison, the cationic lipid 1,2-dilinoleyloxy-N,N-dimethyl-3-aminopropane or ‘DLinDMA’). The liposomes encapsulated 0.1 μg of “vA317” self-replicating RNA replicon which encodes respiratory syncytial virus F protein (see WO2012/031043). […] Doses were given either on days 0 & 21 or days 0 & 42. Immune responses were assessed 2 weeks after each dose (2wp1, 2wp2), and in some cases also at 4 weeks after the second dose (4wp2). Four series of experiments were performed, each with its own naked control.

[4] = Chol/DSPC/stealth lipid S010, 45/44/9/2

pKa ([1]; Table 4)	PDI [2, 4]	Compound	anti-RSV-F titer 4wp2 pool 1 ([3]; Course A = days 0 & 21)	anti-RSV-F titer 4wp2 pool 2 ([3]; Course A = days 0 & 21)	other results
6.02		CCCCC/C=C\C/C=C\CCCCCCCCOc1cc(CN(C)C)cc(OCCCCOC(=O)CCC(COC(=O)CCCCC)COC(=O)CCCCC)c1C [Example 104]			
5.59		CCCCCCCC/C=C\CCCCCCCCOc1cc(CN(C)C)cc(OCCCCCCCC/C=C\CCCCCCCC)c1 [Example 1]			pKa ([1]; Table 5): 5.59; PDI ([2]; Chol/DSPC/stealth lipid PEG-DMG, 45/44/9/2): 0.05
6.15	0.005	CCCCCCCCCC(=O)OCCCCCCCC(=O)OCc1cc(COC(=O)CCCCCCCOC(=O)CCCCCCCCC)cc(CN(C)C)c1 [Example 83]			
5.98	0.09	CCCCC/C=C\C/C=C\CCCCCCCC(=O)OCCCCOc1cc(CN(C)C)cc(OCCCCOC(=O)CC(CCCCCCCC)CCCCCCCC)c1 [Example 109]			
6.11	0.071	CCCCCCCC(=O)OCC(COC(=O)CCCCCCC)OC(=O)CCC(=O)OCc1cc(COC(=O)CCC(=O)OC(COC(=O)CCCCCCC)COC(=O)CCCCCCC)cc(CN(C)C)c1 [Example 107]			
6.09		CCCCCCCCCCCC(=O)OCCCCCCOc1cc(CN(C)C)cc(OCCCCCCOC(=O)CCCCCCCCCCC)c1 [Example 59]			
5.82		CCCCC/C=C\C/C=C\CCCCCCCC(=O)OCCCOc1cc(CN(C)C)cc(OCCCOC(=O)CC(CCCCCCCC)CCCCCCCC)c1 [Example 97]			
6.02	0.076	CCCCC/C=C\C/C=C\CCCCCCCCOC(=O)CCCCOc1cc(CN(C)C)cc(OCCCCC(=O)OCCCCCCCC/C=C\C/C=C\CCCCC)c1 [Example 89]			

Further lines, the compound ahead of its results:

Compound	pKa ([1]; Table 4)	PDI [2, 4]	anti-RSV-F titer 4wp2 pool 1 ([3]; Course A = days 0 & 21)	anti-RSV-F titer 4wp2 pool 2 ([3]; Course A = days 0 & 21)	other results
CCCCC/C=C\C/C=C\CCCCCCCC(=O)OCCOCCOc1cc(CN(CC)CC)cc(OCCOCCOC(=O)CCCCCCC/C=C\C/C=C\CCCCC)c1 [Example 58]	5.9				
CCCCC/C=C\C/C=C\CCCCCCCC(=O)OCc1cc(COC(=O)CCCCCCC/C=C\C/C=C\CCCCC)cc(COC(=O)CCN(C)C)c1 [Example 29]			23930	37278	anti-RSV-F titer 2wp1 pool 1 ([3]; Course A = days 0 & 21): 2101; anti-RSV-F titer 2wp1 pool 2 ([3]; Course A = days 0 & 21): 3584; anti-RSV-F titer 2wp2 pool 1 ([3]; Course A = days 0 & 21): 12529; anti-RSV-F titer 2wp2 pool 2 ([3]; Course A = days 0 & 21): 18669
CCCCC/C=C\C/C=C\CCCCCCCCOc1cc(CCCOC(=O)CCN(C)C)cc(OCCCCCCCC/C=C\C/C=C\CCCCC)c1 [Example 81]			41921	34684	anti-RSV-F titer 2wp1 pool 1 ([3]; Course A = days 0 & 21): 1779; anti-RSV-F titer 2wp1 pool 2 ([3]; Course A = days 0 & 21): 1553; anti-RSV-F titer 2wp2 pool 1 ([3]; Course A = days 0 & 21): 24648; anti-RSV-F titer 2wp2 pool 2 ([3]; Course A = days 0 & 21): 15304
CCCCC/C=C\C/C=C\CCCCCCCCOCC(CN(C)C)OCCCCCCCC/C=C\C/C=C\CCCCC (centres unmarked) [DLinDMA, 1,2-dilinoleyloxy-N,N-dimethyl-3-aminopropane, reference compound]			26504 and 50799	28008 and 35992	anti-RSV-F titer 2wp1 pool 1 ([3]; Course B = days 0 & 42): 13; anti-RSV-F titer 2wp1 pool 2 ([3]; Course B = days 0 & 42): 4; anti-RSV-F titer 2wp2 pool 1 ([3]; Course B = days 0 & 42): 18290; anti-RSV-F titer 2wp2 pool 2 ([3]; Course B = days 0 & 42): 5538; anti-RSV-F titer 4wp2 pool 1 ([3]; Course B = days 0 & 42): 13936; anti-RSV-F titer 4wp2 pool 2 ([3]; Course B = days 0 & 42): 7020
CCCCC/C=C\C/C=C\CCCCCCCCNC(=O)c1cc(COC(=O)CCCN(C)C)cc(C(=O)NCCCCCCCC/C=C\C/C=C\CCCCC)c1 [Example 66]			75	75	anti-RSV-F titer 2wp1 pool 1 ([3]; Course A = days 0 & 21): 75; anti-RSV-F titer 2wp1 pool 2 ([3]; Course A = days 0 & 21): 75; anti-RSV-F titer 2wp2 pool 1 ([3]; Course A = days 0 & 21): 75; anti-RSV-F titer 2wp2 pool 2 ([3]; Course A = days 0 & 21): 75
